Reference: US8715681B2, “Minimal motifs of linear B-cell epitopes in L1 protein from human papillomavirus type 58 and their applications” (Hengsun Pharmaceutical Technology Co. Ltd., priority 2012, dated 2014)
Ends that are not written are not given here.

Tested on: rabbit serum raised against r-L1C
Test: Epitope mapping of 18-mer peptide-GST188 fusion proteins by Western blotting with anti-r-L1C rabbit serum
Type: binding
Details: 18-mer peptides P25-P60 fused with GST188
Source text: 1. The clone of HPV 58 genome was purchased from commercial resource (20). With regular PCR method, the N terminal and C terminal of full-length HPV58-L1 cDNA were amplified from the HPV 58 genome we purchased and then were reconstructed into pRSET-C fusion expression plasmid. The expressed r-L1N^36-233 and r-L1C^226-524 proteins were purified from E. coli, and finally used as antigen to immunize three New Zealand white rabbits to prepare rabbit antisera against r-L1N^36-233 or r-L1C^226-524, respectively.
2. Previously we have constructed a fusion expression plasmid pXXGST-1 specially used for 8/18-mer short peptide biosynthesis in epitope mapping. In this plasmid, the macromolecule protein carrier was a truncated glutathione S-transferases (GST) with 188 residues (GST188) (China Patent NO.: 200710173305.2; 18). DNA recombinant technology was employed to express two sets of 18-mer peptides overlapping each other by 10 residues covering the domains of L1N^36-233 and L1C^226-524 fused with GST188, respectively. Specifically the DNA fragments encoding different short peptide were inserted into pXXGST-1 plasmid after annealing of chemically synthesized plus and minus DNA strands to double-strand DNA. […]

P27: biosynthetic 18-mer peptide of HPV58 L1 fused with GST188; contains DVPID (NKSDVPIDICNSTCKYPD; not fully specified (N-terminus); cysteine pairing not given here)
reactivity in Western blotting: reactive
